We go through 26 compounds from patent publication US11208400B2, “Substituted 6-(1H-pyrazol-1-yl)pyrimidin-4-amine derivatives and uses thereof” (Bayer Aktiengesellschaft, priority 2016, dated 2021).

The term IC50 denotes the point on the concentration scale where inhibition reaches its midpoint.

The target in this test is T1, human Npt2a (Homo sapiens, UniProt Q06495).
T1 construct: expressed in transfected cells
T1 sequence (Q06495 1-639): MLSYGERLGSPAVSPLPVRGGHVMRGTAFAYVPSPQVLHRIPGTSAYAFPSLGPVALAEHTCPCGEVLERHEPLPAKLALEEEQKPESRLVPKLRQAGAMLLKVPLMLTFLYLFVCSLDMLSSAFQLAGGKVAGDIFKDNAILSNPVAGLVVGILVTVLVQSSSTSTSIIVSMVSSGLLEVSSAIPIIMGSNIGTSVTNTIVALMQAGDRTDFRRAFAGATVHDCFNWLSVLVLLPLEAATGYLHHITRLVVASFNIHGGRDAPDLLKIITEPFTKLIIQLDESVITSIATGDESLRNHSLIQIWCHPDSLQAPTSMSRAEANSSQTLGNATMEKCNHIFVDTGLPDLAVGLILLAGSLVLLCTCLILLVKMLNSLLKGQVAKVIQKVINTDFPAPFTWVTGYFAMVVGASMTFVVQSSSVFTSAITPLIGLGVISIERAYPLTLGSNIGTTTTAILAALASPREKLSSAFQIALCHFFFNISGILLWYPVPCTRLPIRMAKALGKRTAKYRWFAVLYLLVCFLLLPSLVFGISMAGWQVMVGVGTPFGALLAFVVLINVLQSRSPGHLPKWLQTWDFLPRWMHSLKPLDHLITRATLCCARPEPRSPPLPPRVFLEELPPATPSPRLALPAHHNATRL
Kind of test: Npt2a activity cell based assay, membrane potential dye, CHO T-REx hNpt2a cells. The settings on record: doxycycline-induced, depolarization by sodium phosphate influx, average or median values if tested more than once. Put shortly:
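Doxycycline-induced (0.5 μg/mL, 24 h) CHO T-REx cells were loaded with membrane potential dye in sodium-free NHE buffer (pH 7.4) and exposed to compound (50 μM–1 nM, 5 min, room temperature).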
`Cc1nn(-c2cc(Nc3c(C)c(-c4ccc(C(F)F)cc4)nn3CC3CC3)ncn2)c(C)c1C(C)(C)O` [Example 396, 2-{1-[6-({1-(cyclopropylmethyl)-3-[4-(difluoromethyl)phenyl]-4-methyl-11H-pyrazol-5-yl}amino)pyrimidin-4-yl]-3,5-dimethyl-1H-pyrazol-4-yl}propan-2-ol] showed an IC50 of 16 nM. Consider `Cc1ccc(-c2nn(CC3CC3)c(Nc3cc(-n4nc(C)c(Cl)c4C)ncn3)c2C)cn1` [Example 397, 6-(4-chloro-3,5-dimethyl-1H-pyrazol-1-yl)-N-[1-(cyclopropylmethyl)-4-methyl-3-(6-methylpyridin-3-yl)-1H-pyrazol-5-yl]pyrimidin-4-amine], for which the IC50 was found to be 92 nM. In the case of `Cc1nn(-c2cc(Nc3c(C)c(-c4ccc(OC(F)F)cc4)nn3CC3CC3)ncn2)c(C)c1Cl` [Example 398, 6-(4-chloro-3,5-dimethyl-1H-pyrazol-1-yl)-N-{1-(cyclopropylmethyl)-3-[4-(difluoromethoxy)phenyl]-4-methyl-1H-pyrazol-5-yl}pyrimidin-4-amine], the IC50 stood at 25 nM.

In turn, `CSc1c(C)nn(-c2cc(Nc3c(C)c(-c4ccc(F)cc4)nn3CC3CC3)ncn2)c1C` [Example 399, N-[1-(cyclopropylmethyl)-3-(4-fluorophenyl)-4-methyl-1H-pyrazol-5-yl]-6-[3,5-dimethyl-4-(methylsulfanyl)-1H-pyrazol-1-yl]pyrimidin-4-amine] came in with an IC50 of 6 nM. In the case of `Cc1cc(C)n(-c2cc(Nc3nn(C)c(-c4ccc(F)cc4)c3OC(F)F)ncn2)n1` [Example 400, N-[4-(difluoromethoxy)-5-(4-fluorophenyl)-1-methyl-1H-pyrazol-3-yl]-6-(3,5-dimethyl-1H-pyrazol-1-yl)pyrimidin-4-amine] it was 6 nM; in that of `Cc1nn(-c2cc(Nc3c(C)c(-c4ccc(F)cc4)nn3CC3CC3)ncn2)c(C)c1[S+](C)[O-]` (centres unmarked) [Example 401, N-[1-(cyclopropylmethyl)-3-(4-fluorophenyl)-4-methyl-1H-pyrazol-5-yl]-6-[3,5-dimethyl-4-(methylsulfinyl)-1H-pyrazol-1-yl]pyrimidin-4-amine], 1400 nM; in that of `Cc1nn(-c2cc(Nc3c(C)c(-c4ccc(F)cc4)nn3CC3CC3)ncn2)c(C)c1C(=O)N(C)C` [Example 402, 1-(6-{[1-(cyclopropylmethyl)-3-(4-fluorophenyl)-4-methyl-1H-pyrazol-5-yl]amino}pyrimidin-4-yl)-N,N,3,5-tetramethyl-1H-pyrazole-4-carboxamide], 55 nM. In the case of `Cc1nn(-c2cc(Nc3c(C)c(-c4ccc(F)cc4)nn3CC3CC3)ncn2)c(C)c1Br` [Example 406, 6-(4-bromo-3,5-dimethyl-1H-pyrazol-1-yl)-N-[1-(cyclopropylmethyl)-3-(4-fluorophenyl)-4-methyl-1H-pyrazol-5-yl]pyrimidin-4-amine] it was 3 nM; in that of `Cc1cc(C)n(-c2cc(Nc3c(C)c(-c4ccc(C(F)F)cc4)nn3C)ncn2)n1` [Example 407, N-{3-[4-(difluoromethyl)phenyl]-1,4-dimethyl-1H-pyrazol-5-yl}-6-(3,5-dimethyl-1H-pyrazol-1-yl)pyrimidin-4-amine], 29 nM. `Cc1cc(C(F)F)n(-c2cc(Nc3c(C)c(-c4ccc(C(F)F)cc4)nn3C)ncn2)n1` [Example 408, 6-[5-(difluoromethyl)-3-methyl-1H-pyrazol-1-yl]-N-{3-[4-(difluoromethyl)phenyl]-1,4-dimethyl-1H-pyrazol-5-yl}pyrimidin-4-amine] yielded an IC50 of 6 nM. The same measure for `Cc1cc(C)n(-c2cc(Nc3nn(C)c(-c4ccc(C(F)F)cc4)c3C)ncn2)n1` [Example 409, N-{5-[4-(difluoromethyl)phenyl]-1,4-dimethyl-1H-pyrazol-3-yl}-6-(3,5-dimethyl-1H-pyrazol-1-yl)pyrimidin-4-amine]: 140 nM; for `COc1c(Nc2cc(-n3nc(C)cc3C(F)F)ncn2)nn(C)c1-c1ccc(C#N)cc1` [Example 410, 4-[3-({6-[5-(difluoromethyl)-3-methyl-1H-pyrazol-1-yl]pyrimidin-4-yl}amino)-4-methoxy-1-methyl-1H-pyrazol-5-yl]benzonitrile]: 2 nM. `COc1c(-c2ccc(C#N)cc2)nn(C)c1Nc1cc(-n2nc(C)cc2C(F)F)ncn1` [Example 411, 4-[5-({6-[5-(difluoromethyl)-3-methyl-1H-pyrazol-1-yl]pyrimidin-4-yl}amino)-4-methoxy-1-methyl-1H-pyrazol-3-yl]benzonitrile] yielded an IC50 of 150 nM.

On to `Cc1cc(C(F)F)n(-c2cc(Nc3nn(C)c(-c4ccc(F)cc4)c3OC(F)F)ncn2)n1` [Example 412, N-[4-(difluoromethoxy)-5-(4-fluorophenyl)-1-methyl-1H-pyrazol-3-yl]-6-[5-(difluoromethyl)-3-methyl-1H-pyrazol-1-yl]pyrimidin-4-amine], for which the IC50 worked out at 12 nM. On to `Cc1nn(-c2cc(Nc3nn(C)c(-c4ccc(F)cc4)c3OC(F)F)ncn2)c(C)c1Cl` [Example 413, 6-(4-chloro-3,5-dimethyl-1H-pyrazol-1-yl)-N-[4-(difluoromethoxy)-5-(4-fluorophenyl)-1-methyl-1H-pyrazol-3-yl]pyrimidin-4-amine], for which the IC50 turned out to be 4 nM. In turn, `COCCn1nc(-c2ccc(F)cc2)c(C)c1Nc1cc(-n2nc(C)c(Cl)c2C)ncn1` [Example 414, 6-(4-chloro-3,5-dimethyl-1H-pyrazol-1-yl)-N-[3-(4-fluorophenyl)-1-(2-methoxyethyl)-4-methyl-1H-pyrazol-5-yl]pyrimidin-4-amine] gave an IC50 of 3 nM. Turning to `Cc1ccc(-c2nn(CC3CC3)c(Nc3cc(-n4nc(C)cc4C(F)F)ncn3)c2C)cn1` [Example 415, N-[1-(cyclopropylmethyl)-4-methyl-3-(6-methylpyridin-3-yl)-1H-pyrazol-5-yl]-6-[5-(difluoromethyl)-3-methyl-1H-pyrazol-1-yl]pyrimidin-4-amine], the IC50 is 1150 nM. Take `Cc1c(-c2ccc(F)cc2)nn(CC2CC2)c1Nc1cc(-n2[nH]c3c(c2=O)CCCC3)ncn1` [Example 416, 2-(6-{[1-(cyclopropylmethyl)-3-(4-fluorophenyl)-4-methyl-1H-pyrazol-5-yl]amino}pyrimidin-4-yl)-1,2,4,5,6,7-hexahydro-3H-indazol-3-one]: the IC50 was found to be 1150 nM. As to `CNc1ccc(-c2nn(CC3CC3)c(Nc3cc(-n4nc(C)c(Cl)c4C)ncn3)c2C)cc1` [Example 417, 6-(4-chloro-3,5-dimethyl-1H-pyrazol-1-yl)-N-{1-(cyclopropylmethyl)-4-methyl-3-[4-(methylamino)phenyl]-1H-pyrazol-5-yl}pyrimidin-4-amine], the IC50 came to 27 nM. The compound `CCOC(=O)c1c(C)nn(-c2cc(Nc3c(C)c(-c4ccc(C)nc4)nn3CC3CC3)ncn2)c1C` [Example 418, ethyl 1-(6-{[1-(cyclopropylmethyl)-4-methyl-3-(6-methylpyridin-3-yl)-1H-pyrazol-5-yl]amino}pyrimidin-4-yl)-3,5-dimethyl-1H-pyrazole-4-carboxylate] returned an IC50 of 65 nM. With `Cc1cc(C)n(-c2cc(Nc3c(C)c(-c4ccc(F)cn4)nn3CC3CC3)ncn2)n1` [Example 421, N-[1-(cyclopropylmethyl)-3-(5-fluoropyridin-2-yl)-4-methyl-1H-pyrazol-5-yl]-6-(3,5-dimethyl-1H-pyrazol-1-yl)pyrimidin-4-amine], half-maximal inhibition (IC50) required 410 nM. The same measure for `Cc1cc(C(F)F)n(-c2cc(Nc3c(C)c(-c4ccc(F)cn4)nn3CC3CC3)ncn2)n1` [Example 422, N-[1-(cyclopropylmethyl)-3-(5-fluoropyridin-2-yl)-4-methyl-1H-pyrazol-5-yl]-6-[5-(difluoromethyl)-3-methyl-1H-pyrazol-1-yl]pyrimidin-4-amine]: 240 nM; for `Cc1nn(-c2cc(Nc3c(C)c(-c4ccc(F)cc4)nn3CC3CC3)ncn2)c(C)c1S(C)(=O)=O` [Example 423, N-[1-(cyclopropylmethyl)-3-(4-fluorophenyl)-4-methyl-1H-pyrazol-5-yl]-6-[3,5-dimethyl-4-(methylsulfonyl)-1H-pyrazol-1-yl]pyrimidin-4-amine]: 55 nM. In turn, `Cc1c(Nc2cc(-n3cc(C(F)(F)F)cn3)ncn2)nn(C)c1-c1ccc(F)cc1` [Example 424, N-[5-(4-fluorophenyl)-1,4-dimethyl-1H-pyrazol-3-yl]-6-[4-(trifluoromethyl)-1H-pyrazol-1-yl]pyrimidin-4-amine] gave an IC50 of 370 nM. For the compound `Cc1c(-c2ccc(F)cc2)nn(CC2CC2)c1Nc1cc(-n2cc(C(F)(F)F)cn2)ncn1` [Example 426, N-[1-(cyclopropylmethyl)-3-(4-fluorophenyl)-4-methyl-1H-pyrazol-5-yl]-6-[4-(trifluoromethyl)-1H-pyrazol-1-yl]pyrimidin-4-amine], the half-maximal inhibitory concentration (IC50) came to 59 nM. In the case of `Cc1c(-c2ccc(F)cc2)nn(C)c1Nc1cc(-n2cc(C(F)(F)F)cn2)ncn1` [Example 427, N-[3-(4-fluorophenyl)-1,4-dimethyl-1H-pyrazol-5-yl]-6-[4-(trifluoromethyl)-1H-pyrazol-1-yl]pyrimidin-4-amine] it was 15 nM.
